Experimental data reported in patent US20070128217A1 (priority 2003, published 2007).

Legend:
[1] = tested on: antibodies in sera from SARS patients (sera 1a, 1b, 2, 6, 37, 62, London, SARS-yellow, SARS-green); assay type: binding, human; parameters: Binding of serum 6 to linear peptides of protein X1 of SARS-CoV Urbani / Binding of serum 37 to linear peptides of protein X1 of SARS-CoV Urbani / Binding of serum 6 to looped/cyclic peptide (PEPSCAN-ELISA) / Binding of serum 37 to looped/cyclic peptide (PEPSCAN-ELISA) / Binding of serum 37 to looped/cyclic peptides of protein X1 of SARS-CoV Urbani / Binding of serum 6 to linear peptides of protein X2 / Binding of serum 37 to linear peptides of protein X2 / Binding of serum 37 to looped/cyclic peptides of protein X2 of SARS-CoV Urbani / Binding of serum 6 to linear peptides of protein M of SARS-CoV Urbani / Binding of serum 37 to linear peptides of protein M of SARS-CoV Urbani / Binding of serum 6 to looped/cyclic peptides of protein M of SARS-CoV Urbani / Binding of serum 37 to looped/cyclic peptides of protein M of SARS-CoV Urbani / Binding of serum 6 to linear peptides of protein X3 of SARS-CoV Urbani / Binding of serum 37 to linear peptides of protein X3 of SARS-CoV Urbani / Binding of serum 37 to looped/cyclic peptides of protein X3 of SARS-CoV Urbani / Binding of serum 6 to linear peptides of protein X4 of SARS-CoV Urbani / Binding of serum 37 to linear peptides of protein X4 of SARS-CoV Urbani / Binding of serum 37 to looped/cyclic peptides of protein X4 of SARS-CoV Urbani / Binding of serum 6 to linear peptides of protein X5 of SARS-CoV Urbani / Binding of serum 37 to linear peptides of protein X5 of SARS-CoV Urbani / Binding of serum 37 to looped/cyclic peptides of protein X5 of SARS-CoV Urbani / Binding of serum 6 to linear peptides of protein N of SARS-CoV Urbani / Binding of serum 37 to linear peptides of protein N of SARS-CoV Urbani / Binding of serum 6 to linear peptide (PEPSCAN-ELISA) / Binding of serum 1a to looped/cyclic peptides of protein N of SARS-CoV Urbani / Binding of serum 1b to looped/cyclic peptides of protein N of SARS-CoV Urbani / Binding of serum 2 to looped/cyclic peptides of protein N of SARS-CoV Urbani / Binding of serum 6 to looped/cyclic peptides of protein N of SARS-CoV Urbani / Binding of serum 37 to looped/cyclic peptides of protein N of SARS-CoV Urbani / Binding of serum 62 to looped/cyclic peptides of protein N of SARS-CoV Urbani / Binding of serum London to looped/cyclic peptides of protein N of SARS-CoV Urbani / Binding of serum SARS-green to looped/cyclic peptides of protein N of SARS-CoV Urbani: unit not given here
[2] = tested on: control sera (pooled serum of ten healthy LUMC hospital workers; commercial negative donor pooled serum from the Dutch bloodbank); assay type: binding, human; parameters: Binding of Control serum LUMC to linear peptides / Binding of Control serum Blood-bank to linear peptides / Binding of Control serum LUMC to looped peptides / Binding of Control Serum Blood-Bank to Looped peptides / Binding of Control serum LUMC to linear peptides of the protein M of SARS-CoV Urbani / Binding of Control serum Blood-bank to linear peptides of the protein M of SARS-CoV Urbani / Binding of Control serum LUMC to looped peptides of the protein M of SARS-CoV Urbani / Binding of Control Serum Blood-Bank to Looped peptides of the protein M of SARS-CoV Urbani: unit not given here
[3] = tested on: rabbit serum obtained by immunizing a rabbit with the SARS-CoV strain Frankfurt 1; assay type: binding; parameters: Binding of a rabbit serum to linear peptides / Binding of a rabbit serum to looped peptides / Rabbit serum linear peptides / Rabbit serum looped peptides / Binding of a rabbit serum to linear peptides of protein N of SARS-CoV Urbani (Rabbit serum linear peptides) / Binding of a rabbit serum to looped/cyclic peptides of protein N of SARS-CoV Urbani (Rabbit serum looped peptides): unit not given here

KSKNPLLYDANYFVC
Binding of serum 1a to linear peptides of protein X1 of SARS-CoV Urbani [1]: 0.7 | Binding of serum 1a to looped/cyclic peptide (PEPSCAN-ELISA) [1]: 0.6 | Binding of serum 1b to linear peptides of protein X1 of SARS-CoV Urbani [1]: 0.4 | Binding of serum 1b to looped/cyclic peptide (PEPSCAN-ELISA) [1]: 0.5 | Binding of serum 2 to linear peptides of protein X1 of SARS-CoV Urbani [1]: 0.4 | Binding of serum 2 to looped/cyclic peptide (PEPSCAN-ELISA) [1]: 0.4 | Binding of serum 6 to linear peptides of protein X1 of SARS-CoV Urbani [1]: 0.4 | Binding of serum 6 to looped/cyclic peptide (PEPSCAN-ELISA) [1]: 0.3 | Binding of serum 37 to linear peptides of protein X1 of SARS-CoV Urbani [1]: 0.5 | Binding of serum 37 to looped/cyclic peptide (PEPSCAN-ELISA) [1]: 0.6 | Binding of serum 62 to linear peptides of protein X1 of SARS-CoV Urbani [1]: 0.4 | Binding of serum 62 to looped/cyclic peptide (PEPSCAN-ELISA) [1]: 0.6 | Binding of serum London to linear peptides of protein X1 of SARS-CoV Urbani [1]: 0.2 | Binding of serum London to looped/cyclic peptide (PEPSCAN-ELISA) [1]: 0.2 | Binding of serum SARS-green to linear peptides of protein X1 of SARS-CoV Urbani [1]: 0.2 | Binding of serum SARS-green to looped/cyclic peptide (PEPSCAN-ELISA) [1]: 0.4 | Binding of serum SARS-yellow to linear peptides of protein X1 of SARS-CoV Urbani [1]: 0.3 | Binding of serum SARS-yellow to looped/cyclic peptide (PEPSCAN-ELISA) [1]: 0.4 | Binding of Control Serum Blood-Bank to Looped peptides [2]: 0.5 | Binding of Control serum Blood-bank to linear peptides [2]: 0.3 | Binding of Control serum LUMC to linear peptides [2]: 0.7 | Binding of Control serum LUMC to looped peptides [2]: 0.6 | Binding of a rabbit serum to linear peptides [3]: 0.1 | Binding of a rabbit serum to looped peptides [3]: 0.6

YQLRARSVSPKLFIR
Binding of serum 1a to linear peptides of protein X4 of SARS-CoV Urbani [1]: 0.7 | Binding of serum 1a to looped/cyclic peptides of protein X4 of SARS-CoV Urbani [1]: 0.7 | Binding of serum 1b to linear peptides of protein X4 of SARS-CoV Urbani [1]: 0.6 | Binding of serum 1b to looped/cyclic peptides of protein X4 of SARS-CoV Urbani [1]: 0.4 | Binding of serum 2 to linear peptides of protein X4 of SARS-CoV Urbani [1]: 0.6 | Binding of serum 2 to looped/cyclic peptides of protein X4 of SARS-CoV Urbani [1]: 0.6 | Binding of serum 6 to linear peptides of protein X4 of SARS-CoV Urbani [1]: 0.7 | Binding of serum 6 to looped/cyclic peptides of protein X4 of SARS-CoV Urbani [1]: 1.2 | Binding of serum 37 to linear peptides of protein X4 of SARS-CoV Urbani [1]: 0.8 | Binding of serum 37 to looped/cyclic peptides of protein X4 of SARS-CoV Urbani [1]: 0.7 | Binding of serum 62 to linear peptides of protein X4 of SARS-CoV Urbani [1]: 0.7 | Binding of serum 62 to looped/cyclic peptides of protein X4 of SARS-CoV Urbani [1]: 0.6 | Binding of serum London to linear peptides of protein X4 of SARS-CoV Urbani [1]: 0.8 | Binding of serum London to looped/cyclic peptides of protein X4 of SARS-CoV Urbani [1]: 1.4 | Binding of serum SARS-green to linear peptides of protein X4 of SARS-CoV Urbani [1]: 0.7 | Binding of serum SARS-green to looped/cyclic peptides of protein X4 of SARS-CoV Urbani [1]: 0.4 | Binding of serum SARS-yellow to linear peptides of protein X4 of SARS-CoV Urbani [1]: 0.6 | Binding of serum SARS-yellow to looped/cyclic peptides of protein X4 of SARS-CoV Urbani [1]: 0.9 | Binding of Control Serum Blood-Bank to Looped peptides [2]: 0.7 | Binding of Control serum Blood-bank to linear peptides [2]: 0.6 | Binding of Control serum LUMC to linear peptides [2]: 0.6 | Binding of Control serum LUMC to looped peptides [2]: 0.7 | Recognition of the peptide by the rabbit serum [3]: recognized
